The supplement of paper PMC10627819

What was measured:
S. aureus Newman [1] = assay: fitness (endpoint OD595 vs no drug) (fraction); higher = more growth
How it was run: (§1)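 Bacterial fitness was scored as optical density at the stationary-phase transition relative to the robust mean of no-drug control wells. Scores are capped at 1. The growth data were OD595 readings every 30 min for 14 h at 37 °C, background-subtracted against the first reading, from 384-well plates inoculated at OD595 0.01 in TSB, LB Lennox or CY.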

B. subtilis 168 [2] = assay: as above
How it was run: as §1

S. pneumoniae D39V [3] = assay: as above
How it was run: as §1

S. aureus Newman [4] = assay: Bliss interaction score (quartile over a dose matrix) (fitness difference); higher = more antagonism (negative = synergy)
How it was run: (§2)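 The Bliss score was calculated by subtracting the expected fitness, the product of single-drug values, from the observed fitness. OD595 at entry into stationary phase, over the plate's robust no-drug mean and capped at 1, served as the fitness readout. Single-drug values were inferred from combination data, and scores are summarised by quartiles across technical, biological and donor/recipient replicates.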

B. subtilis 168 [5] = assay: as above
How it was run: as §2

S. aureus DSM 20231 = assay: as above
How it was run: as §2

S. pneumoniae D39V [6] = assay: as above
How it was run: as §2
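Throughout, for Bliss interaction score (quartile over a dose matrix): first quartile when negative (synergy) and third quartile when positive (antagonism).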

C[C@@H]1O[C@@H]1P(=O)(O)O [Fosfomycin] + CC(C1CCC(C(O1)OC2C(CC(C(C2O)OC3C(C(C(CO3)(C)O)NC)O)N)N)N)NC [Gentamicin]
fitness, S. aureus Newman [1], one replicate, main component drawn
Details	first compound 0.781 µg/mL	first compound 1.562 µg/mL	first compound 3.124 µg/mL
partner 0.375 µg/mL	0.589	0.554	0.236
partner 0.75 µg/mL	0.596	0.571	0.232
partner 1.5 µg/mL	0.537	0.447	0.119

main component drawn
Details	fitness
B. subtilis 168 [2], first compound 1.562 µg/mL, partner 0.0625 µg/mL	0.757
B. subtilis 168 [2], first compound 3.124 µg/mL, partner 0.0625 µg/mL	0.629
S. aureus Newman [1], first compound 0.781 µg/mL, partner 0.5 µg/mL	0.705
S. aureus Newman [1], first compound 0.781 µg/mL, partner 1 µg/mL	0.802
S. aureus Newman [1], first compound 0.781 µg/mL, partner 2 µg/mL	0.796
S. aureus Newman [1], first compound 1.562 µg/mL, partner 0.5 µg/mL	0.585
S. aureus Newman [1], first compound 1.562 µg/mL, partner 1 µg/mL	0.65
S. aureus Newman [1], first compound 1.562 µg/mL, partner 2 µg/mL	0.666
S. aureus Newman [1], first compound 3.124 µg/mL, partner 0.5 µg/mL	0.422
S. aureus Newman [1], first compound 3.124 µg/mL, partner 1 µg/mL	0.455
S. aureus Newman [1], first compound 3.124 µg/mL, partner 2 µg/mL	0.464
S. pneumoniae D39V [3], first compound 1.25 µg/mL, partner 2 µg/mL	0.96
S. pneumoniae D39V [3], first compound 1.25 µg/mL, partner 4 µg/mL	0.944
S. pneumoniae D39V [3], first compound 1.25 µg/mL, partner 8 µg/mL	0.948
S. pneumoniae D39V [3], first compound 2.5 µg/mL, partner 2 µg/mL	0.941
S. pneumoniae D39V [3], first compound 2.5 µg/mL, partner 4 µg/mL	0.896
S. pneumoniae D39V [3], first compound 2.5 µg/mL, partner 8 µg/mL	0.876
S. pneumoniae D39V [3], first compound 5 µg/mL, partner 2 µg/mL	0.715
S. pneumoniae D39V [3], first compound 5 µg/mL, partner 4 µg/mL	0.674
S. pneumoniae D39V [3], first compound 5 µg/mL, partner 8 µg/mL	0.72

main component drawn
Details	Bliss interaction score
B. subtilis 168 [5]	0.152
S. aureus DSM 20231	-0.0757
S. aureus Newman [4]	0.152
S. pneumoniae D39V [6]	-0.0335

O=C(O)c1cn(C2CC2)c2cc(N3CCNCC3)c(F)cc2c1=O [Ciprofloxacin] + CCN(CC)CCOC(=O)c1ccc(N)cc1 [Procaine]
fitness
Details	partner 85.5 µg/mL	partner 171 µg/mL	partner 342 µg/mL
B. subtilis 168 [2], first compound 0.0098 µg/mL	0.883	0.918	0.918
B. subtilis 168 [2], first compound 0.0195 µg/mL	0.688	0.755	0.721
B. subtilis 168 [2], first compound 0.039 µg/mL	0.0386	0.0363	0.0396
S. aureus Newman [1], first compound 0.0375 µg/mL	0.65	0.644	0.635
S. aureus Newman [1], first compound 0.075 µg/mL	0.658	–	–
S. pneumoniae D39V [3], first compound 0.125 µg/mL	≥ 1	≥ 1	≥ 1
S. pneumoniae D39V [3], first compound 0.25 µg/mL	0.9	0.923	0.91

Details	Bliss interaction score
B. subtilis 168 [5]	-0.0792
S. aureus DSM 20231	-0.053
S. aureus Newman [4]	0.0759
S. pneumoniae D39V [6]	0.0982

O=C(O)c1cn(C2CC2)c2cc(N3CCNCC3)c(F)cc2c1=O [Ciprofloxacin] + C[C@@H]1O[C@@H]1P(=O)(O)O [Fosfomycin]
Details	fitness
B. subtilis 168 [2], first compound 0.0098 µg/mL, partner 1.562 µg/mL	0.669
B. subtilis 168 [2], first compound 0.0098 µg/mL, partner 3.124 µg/mL	0.577
B. subtilis 168 [2], first compound 0.0195 µg/mL, partner 1.562 µg/mL	0.409
B. subtilis 168 [2], first compound 0.0195 µg/mL, partner 6.248 µg/mL	0.169
B. subtilis 168 [2], first compound 0.039 µg/mL, partner 1.562 µg/mL	0.0478
B. subtilis 168 [2], first compound 0.039 µg/mL, partner 3.124 µg/mL	0.035
B. subtilis 168 [2], first compound 0.039 µg/mL, partner 6.248 µg/mL	0.0167
S. aureus Newman [1], first compound 0.0375 µg/mL, partner 0.781 µg/mL	0.553
S. aureus Newman [1], first compound 0.0375 µg/mL, partner 1.562 µg/mL	0.455
S. aureus Newman [1], first compound 0.0375 µg/mL, partner 3.124 µg/mL	0.0938
S. aureus Newman [1], first compound 0.075 µg/mL, partner 0.781 µg/mL	0.527
S. aureus Newman [1], first compound 0.075 µg/mL, partner 3.124 µg/mL	0.117
S. aureus Newman [1], first compound 0.15 µg/mL, partner 0.781 µg/mL	0.168
S. aureus Newman [1], first compound 0.15 µg/mL, partner 1.562 µg/mL	0.114
S. aureus Newman [1], first compound 0.15 µg/mL, partner 3.124 µg/mL	0.0354
S. pneumoniae D39V [3], first compound 0.125 µg/mL, partner 1.25 µg/mL	0.94
S. pneumoniae D39V [3], first compound 0.125 µg/mL, partner 2.5 µg/mL	0.892
S. pneumoniae D39V [3], first compound 0.125 µg/mL, partner 5 µg/mL	0.688
S. pneumoniae D39V [3], first compound 0.25 µg/mL, partner 1.25 µg/mL	0.865
S. pneumoniae D39V [3], first compound 0.25 µg/mL, partner 2.5 µg/mL	0.782
S. pneumoniae D39V [3], first compound 0.25 µg/mL, partner 5 µg/mL	0.652
S. pneumoniae D39V [3], first compound 0.5 µg/mL, partner 5 µg/mL	0.42

Details	Bliss interaction score
B. subtilis 168 [5]	-0.177
S. aureus DSM 20231	0.042
S. aureus Newman [4]	0.0638
S. pneumoniae D39V [6]	-0.0628

COc1cccc2c1C(=O)c1c(O)c3c(c(O)c1C2=O)C[C@@](O)(C(=O)CO)C[C@@H]3O[C@H]1C[C@H](N)[C@H](O)[C@H](C)O1 [Doxorubicin] + CN(C)c1cc(NC(=O)CNC(C)(C)C)c(O)c2c1C[C@H]1C[C@H]3[C@H](N(C)C)C(O)=C(C(N)=O)C(=O)[C@@]3(O)C(O)=C1C2=O [Tigecycline]
fitness
Details	first compound 0.25 µg/mL	first compound 0.5 µg/mL	first compound 0.625 µg/mL	first compound 1 µg/mL	first compound 1.25 µg/mL	first compound 2.5 µg/mL
B. subtilis 168 [2], partner 0.039 µg/mL	–	–	≥ 1	–	0.952	0.65
B. subtilis 168 [2], partner 0.078 µg/mL	–	–	0.868	–	0.939	0.609
B. subtilis 168 [2], partner 0.156 µg/mL	–	–	0.919	–	0.879	0.693
S. aureus Newman [1], partner 0.039 µg/mL	–	–	0.783	–	0.761	0.71
S. aureus Newman [1], partner 0.078 µg/mL	–	–	0.822	–	0.821	0.742
S. aureus Newman [1], partner 0.156 µg/mL	–	–	0.828	–	0.811	0.744
S. pneumoniae D39V [3], partner 0.325 µg/mL	0.927	0.975	–	0.931	–	–
S. pneumoniae D39V [3], partner 0.65 µg/mL	0.928	0.94	–	0.89	–	–
S. pneumoniae D39V [3], partner 1.3 µg/mL	0.926	0.961	–	0.884	–	–
S. pneumoniae D39V [3], partner 2.6 µg/mL	0.874	0.912	–	0.79	–	–

fitness, B. subtilis 168 [2], one replicate
Details	first compound 0.625 µg/mL	first compound 1.25 µg/mL	first compound 2.5 µg/mL
partner 0.125 µg/mL	0.963	0.984	0.973
partner 0.25 µg/mL	0.89	0.892	0.916
partner 0.5 µg/mL	0.86	0.913	0.925

Details	Bliss interaction score
B. subtilis 168 [5]	0.0886
S. aureus DSM 20231	-0.0419
S. aureus Newman [4]	-0.0645
S. pneumoniae D39V [6]	0.0654

O=C(O)c1cn(C2CC2)c2cc(N3CCNCC3)c(F)cc2c1=O [Ciprofloxacin] + O=C(O[C@@H]1Cc2c(O)cc(O)cc2O[C@@H]1c1cc(O)c(O)c(O)c1)c1cc(O)c(O)c(O)c1 [EGCG]
fitness
Details	partner 6.25 µg/mL	partner 12.5 µg/mL	partner 25 µg/mL	partner 50 µg/mL
B. subtilis 168 [2], first compound 0.0098 µg/mL	0.878	–	–	–
B. subtilis 168 [2], first compound 0.0195 µg/mL	0.741	0.54	0.375	–
B. subtilis 168 [2], first compound 0.039 µg/mL	–	0.35	0.295	–
S. aureus Newman [1], first compound 0.0375 µg/mL	–	0.666	0.557	0.544
S. aureus Newman [1], first compound 0.075 µg/mL	–	0.55	0.534	0.609
S. aureus Newman [1], first compound 0.15 µg/mL	–	0.0805	0.0356	0.053
S. pneumoniae D39V [3], first compound 0.125 µg/mL	–	0.931	0.907	0.971
S. pneumoniae D39V [3], first compound 0.25 µg/mL	–	0.796	0.889	0.69

Details	Bliss interaction score
B. subtilis 168 [5]	0.149
S. aureus DSM 20231	0.0949
S. aureus Newman [4]	-0.0544
S. pneumoniae D39V [6]	-0.0717
